{
  "source": "patent US12275957B2",
  "about": "“Next generation designer liver organoids and their methods of preparation and use” (ARIZONA BOARD OF REGENTS ON BEHALF OF ARIZONA STATE …, priority 2018, dated 2025)",
  "key": {"[1]": {"test_system": "FXR signaling (CYP7A1, NROB2/SHP, FGF19 expression) in DesLO", "quoted_text": "(§1) To further delineate the mechanism of FXR-mediated CYP7A1 repression, we tested FXR, NROB2, and FGF19 expression following GW4064 treatment.\n(§2) Tissues were harvested and lysed by adding 500 μL Trizol (Life Technologies) directly to the tissue culture well and freezing at −80C. For extraction, lysate was thawed on ice, 100 μL chloroform was added, vortexed for 30 seconds, and centrifuged at 12,000 g for 15 minutes at 4° C. After centrifugation the aqueous phase was transferred to a Qiagen gDNA eliminator column and centrifuged at 10,000 g for 1 minute at 4° C. The flow-through was mixed with an equal volume of 70% EtOH and transferred to an RNEasy mini spin column. The manufacturer protocol for the RNEasy Plus Mini Kit (QIAGEN) was followed for the rest of the procedure. cDNA was synthesized using the high Capacity cDNA reverse transcription (Applied Biosystems). qRT-PCR was performed using the SYBR Green intercalating dye (ThermoFisher Scientific) and previously validated primers (IDT). Expression was normalized to 18S ribosomal RNA and relative gene expression was calculated using 2^−ΔΔCT method."}, "[2]": {"test_system": "bile acid synthesis in DesLO", "test": "Total bile acid assay in media", "type": "cell-based, human", "conditions": "addition of GW4064", "description": "The cell supernatant was assessed at multiple dilutions to optimize detection, and the assay was performed according to the manufacturer's protocol."}, "[3]": {"test_system": "FXR signaling (CYP7A1, NROB2/SHP, FGF19 expression) in DesLO", "test": "qRT-PCR of bile acid synthesis / FXR pathway genes in DesLO after addition of FXR agonist, bile acid or FGF19", "quoted_text": "as §1, §2"}, "[4]": {"test_system": "FXR signaling (CYP7A1, NROB2/SHP, FGF19 expression) in FeLO", "test": "qRT-PCR of bile acid synthesis / FXR pathway genes in FeLO after addition of FXR agonist", "conditions": "FeLO cultures", "quoted_text": "as §1, §2"}, "[5]": {"test_system": "Desmin positive stellate-like cells in DesLO", "test": "Fibrogenesis model: Desmin immunofluorescence and qRT-PCR", "type": "cell-based, human", "conditions": "for Desmin positive population (immunofluorescence staining): 5 ng/mL TGFB1 for 3 days", "excerpt": "Multicellular DesLO as a Model for Fibrogenesis: Hepatic fibrosis is a maladaptive multicellular response of liver that is characterized by an excessive accumulation of extracellular matrix. It is a wound healing process, largely mediated by hepatic stellate cells (liver pericytes) which proliferate, deposit collagen, and generate scar tissue in response to injury. Since DesLOs contain a population of stellate-like cells we assessed whether this cell population respond to classical fibrotic stimuli. We induced fibrogenesis via transforming growth factor beta-1 (TGFβ1) or a combination of TGFβ1 and fetal bovine serum (FBS) supplementation to the culture medium. […] It is known that tissue culture treated polystyrene (TCTP) can increase cell stress and stellate cell proliferation.\nCells were grown on Matrigel-coated 8 mm or 12 mm diameter circular glass coverslips and fixed for 20 min in 4% paraformaldehyde (Electron Microscopy Sciences) at room temperature. Coverslips were then washed three times in 200 μl PBS droplets on Parafilm (Pechiney Plastic Packaging Company) followed by 15 min permeabilization in 100 μl of 0.2% Triton X-100 in PBS. Subsequently the coverslips were washed three times in 200 μl in washing buffer (0.05% Tween-20 in PBS) for 5 min and blocked for 20 min in 200 μl wash buffer plus 5% normal donkey serum (Jackson ImmunoResearch Laboratories). The incubation with the primary antibodies was performed for 1 h at room temperature in 30 μl of 5% normal donkey serum in PBS followed by three washes in 200 μl in PBS for 5 min each. The incubation with the secondary antibodies was performed for 1 h at room temperature in 30 μl of 5% normal donkey serum in PBS followed by three washes in 200 μl in PBS for 5 min. Finally, the coverslips were mounted on microscopy glass slides using ProLong Diamond Antifade (Life Technologies, USA), cured overnight at room temperature and then sealed with nail polish. Antibody list and concentrations are included in the supplement."}},
  "note": "Where two headings read alike, the source gives them in different places.",
  "data": [
    {"compound": "C[C@H](CCC(=O)O)[C@H]1CC[C@H]2[C@@H]3[C@H](O)C[C@@H]4C[C@H](O)CC[C@]4(C)[C@H]3CC[C@]12C", "note": "[CDCA, chenodeoxycholic acid]", "values": [
      {"measurement": "CYP7A1 expression change (qRT-PCR)", "setting": "[1]", "value": "expected downregulation of CYP7A1"}
    ]},
    {"compound": "CC(C)c1onc(-c2c(Cl)cccc2Cl)c1COc1ccc(/C=C/c2cccc(C(=O)O)c2)c(Cl)c1", "note": "[GW4064]", "values": [
      {"measurement": "total bile acid in media", "setting": "[2]", "value": "repression of bile acid synthesis"},
      {"measurement": "upregulation of FGF19", "setting": "[3]; GW4064 treatment", "value": "> 40", "unit": "folds"},
      {"measurement": "upregulation of SHP (NROB2)", "setting": "[3]; GW4064 treatment", "value": "> 40", "unit": "folds"},
      {"measurement": "CYP7A1 repression (real-time qPCR)", "setting": "[3]; addition of GW4064", "value": 4, "unit": "fold"},
      {"measurement": "upregulation of SHP and FGF19 / CYP7A1 repression", "setting": "[4]; GW4064 treatment", "value": "could not be captured"},
      {"measurement": "CYP7A1 repression (real-time qPCR)", "setting": "[4]; addition of GW4064", "value": "not repressed"}
    ]},
    {"compound": "fibroblast growth factor 19 [FGF19]", "values": [
      {"measurement": "CYP7A1 expression change (qRT-PCR)", "setting": "[3]; addition to the media", "value": "expected downregulation of CYP7A1"}
    ]},
    {"compound": "transforming growth factor beta-1 [TGFβ1]", "values": [
      {"measurement": "Desmin positive population (immunofluorescence staining)", "setting": "[5]; DesLO, versus vehicle control", "value": "visibly expanded"},
      {"measurement": "Desmin positive population (immunofluorescence staining)", "setting": "[5]; DesLO, versus vehicle control, listed as TGFB1", "value": "increase in expression"},
      {"measurement": "Desmin levels (qRT-PCR)", "setting": "[5]; DesLO, versus vehicle control", "value": "increase"},
      {"measurement": "response to TGFβ1 treatment (Desmin qRT-PCR)", "setting": "[5]; both FeLO and DesLO", "value": "responded modestly"}
    ]}
  ]
}
